Measured values: EP0114002B1, “Benzothiopyrano(4,3,2,-cd)indazoles, their pharmaceutical compositions and methods for their production” (WARNER-LAMBERT COMPANY, priority 1983, dated 1984)
Read-outs that look alike come from different tables or passages of the source.

Experiments:
L1210 cells = assay: L1210 murine leukemia cell growth inhibition in vitro; assay type: cell-based; conditions: Mus musculus, 72 h
Experimental: Another test protocol uses L1210 cells, a murine leukemia cell line, grown in RPMI 1640 supplemented with 5% fetal bovine serum and gentamicin ([…]). Drug dilutions are prepared in the appropriate solvent and 20 µl of each dilution are added to 24-well Linbro tissue culture plates, followed by the addition of 2.0 ml of cell suspension containing 3 x 10^4 cells per ml. Solvent and medium controls are included in each test. After incubation at 37°C forthree days in 5% C02, the contents of each well are removed and the cells counted in a ZBI Coulter counter. Percent growth are calculated relative to the controls and the levels of drug activity are expressed as ID50 in moles per liter.

HCT-8 cells = assay: in vitro proliferating human colon adenocarcinoma (HCA) cell screen; assay type: cell-based
Experimental: One test protocol is the in vitro proliferating human colon adenocarcinoma (HCA) cell screen. In this test, HCT-8 cells (HCA cell line received from Yale University) are trypsinized using trypsin-EDTA. A single cell suspension is achieved by passing the cells through a 26 gauge needle with a 20 cc syringe. A cell suspension is prepared using RPMI 1640 + 10% FCS + 50) g/ml gentamicin sulfate with a cell concentration of approximately 30,000 cells/ml. The cell suspension is dispensed in Linbro 24-well plates; 1 ml/well. The plates are incubated for approximately 48 hours at 37°C in a 5% C02 atmosphere. At this time test compounds are added in the appropriate concentration. Five µl of the 200 µg/ml stock solution is added to each well in primary test. Ten µl of the appropirate dilution is added to each well for a titration test. The plates are re-incubated an additional 60 to 65 hours at 37°C in a 5% C02 atmosphere. The cells are lysed using a mix of cationic surfactant, glacial acetic acid, and sodium chloride. Two ml of the lysed cell suspension from each well is added to 8 ml of diluent. The number of nuclei is determined using a Coulter counter (ZBI model), and a percent growth for each drug concentration is calculated. From this, an ID50 molar concentration of a compound (that results in 50% inhibition of growth) is determined.

[1] = tested on: lymphocytic leukemia P388; assay: in vivo lymphocytic leukemia P388 test; parameters: species or system mice; conditions: Mus musculus, P388, ip, 120 h, read-out: P388 in vivo T/C × 100; for response vs control in vivo at 6.25 mg/kg: Dose 6.25 mg/kg intraperitoneally once daily for five days; for response vs control in vivo at 12.5 mg/kg: Dose 12.50 mg/kg intraperitoneally once daily for five days; for response vs control in vivo at 25 mg/kg: Dose 25.00 mg/kg intraperitoneally once daily for five days; for response vs control in vivo at 50 mg/kg: Dose 50.00 mg/kg intraperitoneally once daily for five days
Experimental: Another test protocol is the in vivo lymphocytic leukemia P388 test. The animals used are either male or female CD2F, mice. There are six or seven animals per test group. The tumor transplant is by intraperitoneal injection of dilute ascitic fluid containing cells of lymphocytic leukemia P388. The test compounds are administered intraperitoneally once daily for five consecutive days at various doses following tumor inoculation. The animals are weighed and survivors are recorded on a regular basis for 30 days. A compound is designated "toxic" if, at a given dose, all animals died prior to four days after the first injection of drug. A ratio of survival time for treated (T)/control (C) animals is calculated. A criterion for efficacy is a ratio T/C times 100 greater than or equal to 125. See Cancer Chemotherapy Reports, Part 3, 3; 1 (1972) for a comprehensive discussion of the protocol.

[2] = tested on: Aerobacter aerogenes 0126; assay: in vitro antibacterial/antifungal (ABF) agar-disk diffusion test; assay type: cell-based; conditions: Klebsiella aerogenes, read-out: ABF Zone Diameter (cont. in mg/ml) A. Aero-genes; for zone of inhibition at 500 µg/mL: 0.5 mg/ml; for zone of inhibition at 3000 µg/mL: 3 mg/ml
Experimental: (§1) Still another test protocol is the in vitro antibacterial/antifungal (ABF) test. Compounds are tested for antimicrobial activity in an agar-disk diffusion assay, a standard microbiological technique for testing antibiotics'. After incubation of each culture with a test compound, a zone of inhibition is determined. The zone diameter (mm) of active compounds ranges from a minimum of 13.5 mm to as high as 60 mm, with a greater diameter reflecting higher activity. For convenience, values are reported for two gram-negative bacteria (Aerobacter aerogenes 0126 and Escherichia coli 04863), two gram-positive bacteria (Bacillus subtilis 04555 and Streptococcus faecalis 05045 utilizing AM-09 medium), and one mycelial fungus (Penicillium avellaneum M2988).

Bacillus subtilis 04555 = assay: as above; assay type: cell-based; conditions: read-out: ABF Zone Diameter (cont. in mg/ml) B. Sub-tilis; for zone of inhibition at 500 µg/mL: 0.5 mg/ml; for zone of inhibition at 1000 µg/mL: 1 mg/ml; for zone of inhibition at 3000 µg/mL: 3 mg/ml
Experimental: as §1

Escherichia coli 04863 = assay: as above; assay type: cell-based; conditions: read-out: ABF Zone Diameter (cont. in mg/ml) E. Coli; for zone of inhibition at 3000 µg/mL: 3 mg/ml
Experimental: as §1

[3] = tested on: Penicillium avellaneum M2988; assay: as above; assay type: cell-based; conditions: Hamigera avellanea, 3 mg/ml, read-out: ABF Zone Diameter (cont. in mg/ml) P. Avell-aneum
Experimental: as §1

[4] = tested on: Streptococcus faecalis 05045; assay: as above; assay type: cell-based; conditions: Enterococcus faecalis, AM-09 medium, read-out: ABF Zone Diameter (cont. in mg/ml) S. Fae-calis; for zone of inhibition at 1000 µg/mL: 1 mg/ml; for zone of inhibition at 3000 µg/mL: 3 mg/ml; for zone of inhibition at 500 µg/mL: 0.5 mg/ml
Experimental: as §1

[5] = Table 1, three days incubation, 50% inhibition of growth, read-out: L1210 in vitro ID50
[6] = Table 1, 60 to 65 hours with compound, 50% inhibition of growth, read-out: HCA—3 in vitro ID50
[7] = Table 2, three days incubation, read-out: L1210 in vitro IC50
[8] = Table 2, 60 to 65 hours with compound, read-out: HCA—3 in vitro IC50

## Nc1ccc2c3c(nn2CCNCCO)-c2ccccc2Sc13 [CH2CH2NHCH2CH2OH / NH2]
L1210 cells; [5]
  IC50: 170 nM
HCT-8 cells; [6]
  IC50: 580 nM
[1]; Dose 3.12 mg/kg intraperitoneally once daily for five days
  response vs control in vivo at 3.12 mg/kg: 135%
[1]
  response vs control in vivo at 6.25 mg/kg: 143%
  response vs control in vivo at 12.5 mg/kg: 159%
  response vs control in vivo at 25 mg/kg: 194%
[2]
  zone of inhibition at 500 µg/mL: 16 mm
Bacillus subtilis 04555
  zone of inhibition at 500 µg/mL: 18 mm
Escherichia coli 04863; 0.5 mg/ml
  zone of inhibition at 500 µg/mL: 17 mm
[3]
  zone of inhibition at 3000 µg/mL: 15 mm
[4]
  zone of inhibition at 1000 µg/mL: 20 mm

## O=C1OCCN1CCNc1ccc2c3c(nn2CCNCCO)-c2ccccc2Sc13 [CH2CH2NHCH0H2OH /]
L1210 cells; [5]
  IC50: 570 nM
HCT-8 cells; [6]
  IC50: 1400 nM
[2]; 1 mg/ml
  zone of inhibition at 1000 µg/mL: 14 mm
Bacillus subtilis 04555
  zone of inhibition at 1000 µg/mL: 16 mm
Escherichia coli 04863
  zone of inhibition at 3000 µg/mL: 15 mm
[3]
  zone of inhibition at 3000 µg/mL: 0 mm
[4]
  zone of inhibition at 1000 µg/mL: 17 mm

## CN(C)CCCn1nc2c3c(c(N)ccc31)Sc1ccccc1-2 [CH2CH2CH2N(CH3)2 / NH2]
L1210 cells; [5]
  IC50: 2000 nM
HCT-8 cells; [6]
  IC50: 1800 nM
[1]
  response vs control in vivo at 50 mg/kg: 121%
[1]; Dose 100.00 mg/kg intraperitoneally once daily for five days
  response vs control in vivo at 100 mg/kg: 182%
[1]; Dose 200.00 mg/kg intraperitoneally once daily for five days, survival time treated/control
  response vs control in vivo at 200 mg/kg: 169%
[2]
  zone of inhibition at 500 µg/mL: 16 mm
Bacillus subtilis 04555
  zone of inhibition at 3000 µg/mL: 0 mm
Escherichia coli 04863
  zone of inhibition at 3000 µg/mL: 15 mm
[3]
  zone of inhibition at 3000 µg/mL: 16 mm
[4]
  zone of inhibition at 3000 µg/mL: 15 mm

## NCCn1nc2c3c(c(NCCNCCO)ccc31)Sc1ccccc1-2 [CH2CH2NH2 / NHCH2NHCH2CH2OH, 2-[[2-[[2-(2-aminoethyl)-2H[1]benzothiopyrano[4,3,2-cd]indazol-5-yl]amino]ethyl]amino]ethanol]
L1210 cells; [5]
  IC50: 24 nM
HCT-8 cells; [6]
  IC50: 88 nM
[2]
  zone of inhibition at 500 µg/mL: 15 mm
Bacillus subtilis 04555
  zone of inhibition at 500 µg/mL: 15 mm
Escherichia coli 04863
  zone of inhibition at 3000 µg/mL: 0 mm
[3]
  zone of inhibition at 3000 µg/mL: 0 mm
[4]
  zone of inhibition at 3000 µg/mL: 0 mm

## O=[N+]([O-])c1ccc2c3c(nn2CCNCCO)-c2ccccc2Sc13 [CH2CH2NHCH2CH2OH / NO2, 2-[[2-(5-Nitro-2H[1]benzothiopyrano[4,3,2-cd]indazol-2-yl)ethyl]amino]ethano]
L1210 cells; [5]
  IC50: 20 nM
HCT-8 cells; [6]
  IC50: 100 nM
[1]
  response vs control in vivo at 6.25 mg/kg: 148%
  response vs control in vivo at 12.5 mg/kg: 150%
  response vs control in vivo at 25 mg/kg: 197%
[2]; 0.1 mg/ml
  zone of inhibition at 100 µg/mL: 16 mm
Bacillus subtilis 04555
  zone of inhibition at 500 µg/mL: 18 mm
Escherichia coli 04863; 0.1 mg/ml
  zone of inhibition at 100 µg/mL: 16 mm
[3]
  zone of inhibition at 3000 µg/mL: 0 mm
[4]
  zone of inhibition at 500 µg/mL: 15 mm

## CCN(CC)CCn1nc2c3c(c(N=CN(C)C)ccc31)Sc1ccccc1-2 [CH2CH2N(C2H5)2 / N=CHN(CH3)2, N'-[2-(2-(Diethylamino)ethyl]-2H[1]benzothiopyrano[4,3,2-cd]indazol-5-yl]-N,N-dimethyl-methanimidamide]
L1210 cells; [5]
  IC50: 100 nM
HCT-8 cells; [6]
  IC50: 240 nM
[1]
  response vs control in vivo at 25 mg/kg: 145%
  response vs control in vivo at 50 mg/kg: 206%
[2]
  zone of inhibition at 3000 µg/mL: 0 mm
Bacillus subtilis 04555
  zone of inhibition at 1000 µg/mL: 16 mm
Escherichia coli 04863
  zone of inhibition at 3000 µg/mL: 0 mm
[3]
  zone of inhibition at 3000 µg/mL: 16 mm
[4]
  zone of inhibition at 3000 µg/mL: 0 mm

## CCN(CC)CCn1nc2c3c(c([N+](=O)[O-])ccc31)Sc1ccccc1-2 [CH2CH2N(CH2H5)2 / HO2, N,N-Diethyl-5-nitro-2H[1]benzothiopyrano[4,3,2-cd]-indazole-2-ethanamine]
L1210 cells; [5]
  IC50: 56 nM
HCT-8 cells; [6]
  IC50: 200 nM
[1]
  response vs control in vivo at 25 mg/kg: 138%
  response vs control in vivo at 50 mg/kg: 170%
[2]
  zone of inhibition at 3000 µg/mL: 0 mm
Bacillus subtilis 04555
  zone of inhibition at 3000 µg/mL: 14 mm
Escherichia coli 04863; 1 mg/ml
  zone of inhibition at 1000 µg/mL: 14 mm
[3]
  zone of inhibition at 3000 µg/mL: 15 mm
[4]
  zone of inhibition at 3000 µg/mL: 14 mm

## CCN(CC)CCn1nc2c3c(c(NC(C)=O)ccc31)Sc1ccccc1-2 [CH2CH2N(C2H5)2 / NHCOCH3, N-[2-[2-(Diethylamino)ethyl]-2H-[1]benzothiopyrano[4,3,2-cd]indazol-5-yl]acetamide]
L1210 cells; [5]
  IC50: 240 nM
HCT-8 cells; [6]
  IC50: 600 nM
[1]
  response vs control in vivo at 12.5 mg/kg: 170%
[2]
  zone of inhibition at 3000 µg/mL: 16 mm
Bacillus subtilis 04555
  zone of inhibition at 500 µg/mL: 16 mm
Escherichia coli 04863
  zone of inhibition at 3000 µg/mL: 16 mm
[3]
  zone of inhibition at 3000 µg/mL: 0 mm
[4]
  zone of inhibition at 3000 µg/mL: 15 mm

## CCN(CC)CCn1nc2c3c(c(NCCNCCO)ccc31)Sc1c(O)ccc(O)c1-2 [2-[2-(Diethylamino)ethyl]-5-[[2-[(2-hydroxyethyl)amino]ethyl]amino]-2H[1]benzothiopyrano[4,3,2-cdlindazole-7,10-diol]
L1210 cells; [7]
  IC50: > 1500 nM
HCT-8 cells; [8]
  IC50: > 1500 nM
[1]
  response vs control in vivo at 6.25 mg/kg: 123%
  response vs control in vivo at 12.5 mg/kg: 118%
  response vs control in vivo at 25 mg/kg: 121%
  response vs control in vivo at 50 mg/kg: 138%
[2]
  zone of inhibition at 3000 µg/mL: 14 mm
Bacillus subtilis 04555
  zone of inhibition at 3000 µg/mL: 0 mm
Escherichia coli 04863
  zone of inhibition at 3000 µg/mL: 0 mm
[3]
  zone of inhibition at 3000 µg/mL: 0 mm
[4]
  zone of inhibition at 500 µg/mL: 15 mm

## CCN(CC)CCn1nc2c3c(c(N)ccc31)Sc1c(O)ccc(O)c1-2 [CH2CH2N(C2H5)2 / NH2 / 7,10-(OH)2, 5-amino-2-[2-(diethylamino)ethyl]-2H[1]-benzothiopyrano[4;3,2-cd]indazole-7,10-diol]
L1210 cells; [7]
  IC50: > 2200 nM
HCT-8 cells; [8]
  IC50: > 2200 nM
[2]
  zone of inhibition at 3000 µg/mL: 0 mm
Bacillus subtilis 04555
  zone of inhibition at 3000 µg/mL: 0 mm
Escherichia coli 04863
  zone of inhibition at 3000 µg/mL: 0 mm
[3]
  zone of inhibition at 3000 µg/mL: 0 mm
[4]
  zone of inhibition at 3000 µg/mL: 19 mm
